What was measured:
Assay type in all cases: cell-based
[1] = tested on: LNCaP cells; assay: LIVE/DEAD cytotoxicity assay; conditions: 1 μM, nine days, RPMI + 10% DCC-FBS
Procedure: FIG. 1. […] The pictures were taken after nine days of incubation in RPMI supplemented with 10% DCC-FBS plus indicated antiandrogens. B and C. Quantitative analysis of images.
Media was changed every 3 days and floating cells were centrifuged down and reseeded into dish. LIVE/DEAD reagent was added after 9 days culturing. Live cells (indicated by green fluorescence) were counted and compared to the number of dead cells (red).

[2] = tested on: LNCaP cells; assay: Clonogenic assay / in vitro selection for antiandrogen resistance; conditions: RPMI + 10% DCC-FBS
Procedure: Clonogenic assays are performed by a modification of the procedure described by Nara et al. (Cancer Research 2003, 63, 149-153). […] Media was changed every three days was and documented weekly. If cells reach 95% confluence, the cells were counted and reseeded at a density of 80,000 cell per well.

[3] = biological target: T1, GFP-AR (Homo sapiens, UniProt P10275); assay: Nuclear localization of GFP-AR in CV-1 cells; conditions: 2 h after ligand addition; DHT 10 μM, other ligands 100 μM
T1 construct: expressed in transfected cells; host or cells: CV-1 monkey kidney cells
T1 sequence (P10275 1-920): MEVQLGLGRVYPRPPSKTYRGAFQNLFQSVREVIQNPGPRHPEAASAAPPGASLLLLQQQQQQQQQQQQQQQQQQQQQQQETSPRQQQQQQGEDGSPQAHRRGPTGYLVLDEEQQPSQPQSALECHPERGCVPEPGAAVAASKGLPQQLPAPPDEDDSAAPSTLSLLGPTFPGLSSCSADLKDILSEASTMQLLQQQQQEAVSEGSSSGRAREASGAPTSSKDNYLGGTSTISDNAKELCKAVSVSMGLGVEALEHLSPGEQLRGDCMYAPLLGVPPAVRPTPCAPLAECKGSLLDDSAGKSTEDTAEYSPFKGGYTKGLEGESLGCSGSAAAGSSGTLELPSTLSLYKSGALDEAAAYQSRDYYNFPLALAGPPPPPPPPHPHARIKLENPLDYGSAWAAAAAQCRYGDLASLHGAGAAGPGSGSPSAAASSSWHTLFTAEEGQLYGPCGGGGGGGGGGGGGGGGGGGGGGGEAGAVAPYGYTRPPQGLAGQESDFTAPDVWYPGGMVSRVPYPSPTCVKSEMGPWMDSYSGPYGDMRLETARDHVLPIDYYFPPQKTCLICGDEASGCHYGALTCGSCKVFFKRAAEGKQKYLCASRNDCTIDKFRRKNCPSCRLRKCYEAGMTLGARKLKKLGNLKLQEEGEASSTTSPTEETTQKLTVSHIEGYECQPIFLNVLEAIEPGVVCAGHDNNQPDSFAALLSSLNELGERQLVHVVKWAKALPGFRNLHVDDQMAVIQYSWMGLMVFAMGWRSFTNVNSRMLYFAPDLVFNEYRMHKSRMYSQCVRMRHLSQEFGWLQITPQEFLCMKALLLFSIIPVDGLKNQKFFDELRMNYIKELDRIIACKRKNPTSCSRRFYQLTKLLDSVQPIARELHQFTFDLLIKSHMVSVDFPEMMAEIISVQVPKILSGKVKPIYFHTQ
Procedure: Nuclear localization of GFP-AR in CV-1 cells grown in 10% charcoal stripped CCS/DMEM.
CV-1 monkey kidney cells were seeded in a 12 well plate at a concentration of 50,000 cells per well. After 24 h, the cells were transfected with GFP-AR in a solution of Opti-MEM and Lipofectamine 2000, and incubated overnight. The cells were then imaged on a fluorescent microscope, followed by the addition of 6 respective ligands, and control (DMSO vehicle). […] The cells were incubated for two hours and again imaged. The cells were fixed, and stained (DAPI) to image the nucleus.

[4] = tested on: AR protein levels in CRW22 cells; assay: AR downregulation by western blot, CRW22RV1 cells; conditions: CRW22RV1 cells, 10, 50 or 100 μM, 24 h
Procedure: Compounds that down regulate the levels of AR in prostate cancer may be effective in androgen dependent cells and anti-androgen resistant cells that over express the androgen receptor. […] LNCaP or CRW22RV1 cells were treated with 10 μM, 50 μM or 100 μM compound for 24 h. Cells were harvested and lysed. Cell lysates were analyzed by SDS-PAGE followed by immunostaining with anti-AR and anti-lamin antibodies (see FIGS. 15 and 16).

CN(C)CCCOc1cccc(-c2ccccc2S(=O)(=O)CC(C)(O)C(=O)Nc2ccc(C#N)c(C(F)(F)F)c2)c1 (stereo not shown) [PAN52]
Viable cells (green) in fluorescence images [1]: almost all cells
Ability to evade resistance in in vitro selections (resistant LNCaP clones) [2]: evade resistance
Nuclear localization of GFP-AR fluorescence [3]: little to no nuclear localization
AR protein levels relative to bicalutamide, DHT or DMSO controls [4]: downregulation of AR protein levels

Reference: patent publication US8450374B2, “Pan-antagonists for the androgen receptor and androgen receptor mutants associated with anti-androgen withdrawal” (priority 2009, dated 2013)
